From patent US20200222400A1, “METHODS FOR THE TREATMENT OF NEUROLOGICAL DISORDERS” (Yumanity Therapeutics, Inc., priority 2019, published 2020)

Test system: SCD
Assay: Fatty acid saturation in guinea pig brain after oral SCD inhibitors (GC-FID of FAME)
Type: in vivo
Conditions: oral 25 mg/kg twice daily 5 days, vs vehicle
Procedure: FIG. 19A-FIG. 19F are a series of graphs showing an evaluation of fatty acid saturation in guinea pig brain after oral administration of SCD inhibitors. Guinea pigs were dosed orally with SCD inhibitors twice daily (every 12 hours) for 5 days. Guinea pigs were dosed with vehicle, SCD5 Selective Inhibitor 1 (“SCD5-SI-1”), SCD5 Selective Inhibitor 2 (“SCD5-SI-2”), CAY10566 (“CAY”) or SCD1/SCD5 Inhibitor 1 (“SCD1/5-1”), all compounds at 25 mg/kg with a volume-matched vehicle control. Four hours after the last dose on day 5, guinea pigs were sacrificed, and brains were removed after whole-body saline perfusion. […] Samples were evaluated on a gas chromatograph with a flame ionization detector (GC-FID) to quantify a comprehensive panel of fatty acid species. Brain samples were evaluated for levels of 16 (FIG. 19A) and 18 (FIG. 19B) carbon-containing fatty acids (C16, C18 respectively), and the desaturation index (DI) was calculated by taking the ratio of desaturated to saturated fatty acid for each species. […] Brain samples were evaluated for the relative levels of the positional isomers of C16, including C16:1 n7 palmitoleic acid (FIG. 19C) or C16:1 n9 monounsaturated fatty acids (FIG. 19D). […] Data was analyzed by one-way ANOVA with Tukey's post-hoc test to account for multiple comparisons. ** p<0.01, *** p<0.005, **** p<0.0001. […]

## Cc1nnc(-c2ccc(N3CCC(Oc4cc(F)ccc4Cl)CC3)nn2)o1 [CAY10566]
  C16 desaturation index (DI), brain: decreased the C16 DI
